Reference: patent publication US9453051B2, “Cyclosporin derivatives” (priority 2011, dated 2016)
pIC50: −log10 of the molar value. Like-named read-outs stand apart in the source and are kept apart here.

Key:
calcineurin = calcineurin (Homo sapiens, UniProt P62937+P63098+Q08209); assay: Inhibition of the phosphatase activity of calcineurin (scintillation-proximity-assay, in presence of Cyp18);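 also: calcineurin dephosphorylation of a ³³P-labelled RII phosphopeptide, captured on streptavidin-coated wells and read by scintillation counting, with uninhibited enzyme activity taken as 100%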
Procedure: The measurement was carried out by incubation of 10 μMol of the biotinylated phosphopeptide [sequence]pSer-Val-Ala-Ala-Glu (MW=2192.0) (RH-peptide) marked with ^33P in a sample buffer (40 mM Tris-HCl, pH 7.5, 100 mM NaCl, 6 mM MgCl2, 0.5 mM dithiothreitol, 1 mM. CaCl2, 0.1 mg/ml bovine serum albumin) in presence of 50 nM calmodulin and 1.32 nM calcineurin at 30° C. for 20 min in a 96 well micro titer plate (Costar, Bodenheim, Germany). The total volume of the assay/well was 100 μl. After this reaction time a 90 μl aliquot of the reaction mixture was transferred into a scintillation cavity coated with streptavidin and incubated for 20 min at 22° C. After a washing step the RII phosphopeptide-associated ^33P radioactivity was measured in a MicroBeta Top Counter (Wallac) and the enzyme activity was indicated as average value of three measurements±S.D. The uninhibited dephosphorylation activity has been set on 100%.

NFAT = assay: Cellular NFAT-reporter-gene assay (GloResponse NFAT-RE-luc2P HEK293); assay type: cell-based; settings: Homo sapiens, read-out: NFAT-reporter-gene assay IC50
Excerpt: An antigen specific stimulation of the T-cell receptor causes the activation of transcription factors such as e.g. NFAT (nuclear factor of activated T cells). NFAT-activation is essential for the expression of interleukine-2 and therefore, for the proliferation of T-cells as part of the immune response. A stable NFAT-reporter-gene cell line enables the analysis of modulators of the NFAT-pathways and thus, the evaluation of the immunosuppressive effects of compounds.
The stably transfected reporter-gene cell line GloResponse NFAT-RE-luc2P HEK293 (promega Corp. USA) was cultivated in DMEM (10% FCS; 2 mM Glutamin; 200 μg/ml Hygromycin) and seeded on 96-well plates (200.000 cells/well). The compounds to be tested were either added to the cells in a 2-point-determination (5 μM and 10 μM) or an ICH-determination (concentration series 4.1 nM-1 μM). […] Immediately thereafter the cells were stimulated with 5 nM PMA and 2 μM ionomycin and incubated over 16 h (37° C.; cell incubator). This double stimulation simulates a T-cell receptor stimulation and causes a NFAT activation with subsequently expression of the luciferase-reporter-gene. The amount of luciferase was quantitatively determined after 16 h by measurement of the bioluminescence by Bright-Glo Luciferase-Assay-System (Promega Corp., USA). The averaged luciferase values of the vehicle treated (1% DMSO) and with PMA/ionomycin stimulated cells were used as positive control and reference value.

[1] = molecular target: recombinant human wild type Cyp18 (Cyp18 wt) (Homo sapiens, UniProt P62937); assay: biochemical
Chain of recombinant human wild type Cyp18 (Cyp18 wt) (P62937 whole entry): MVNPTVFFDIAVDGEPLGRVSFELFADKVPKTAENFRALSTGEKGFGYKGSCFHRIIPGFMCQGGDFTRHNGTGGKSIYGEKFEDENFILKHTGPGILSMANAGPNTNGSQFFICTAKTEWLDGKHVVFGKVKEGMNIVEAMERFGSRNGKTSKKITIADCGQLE

Row | Compound | pIC50 (calcineurin) | pIC50 (NFAT; HEK293, 16 h) | pIC50 [1] | pIC50 (NFAT; HEK293 reporter cells stimulated with 5 nM PMA and 2 μM ionomycin, 16 h)
1 | CC[C@@H]1NC(=O)[C@H]([C@H](O)[C@H](C)Cc2nc3cc(C(=O)OCCN(C)C)ccc3[nH]2)N(C)C(=O)[C@H](C(C)C)N(C)C(=O)[C@H](CC(C)C)N(C)C(=O)[C@H](CC(C)C)N(C)C(=O)[C@@H](C)NC(=O)[C@H](C)NC(=O)[C@H](CC(C)C)N(C)C(=O)[C@H](C(C)C)NC(=O)[C@H](CC(C)C)N(C)C(=O)CN(C)C1=O [Compound 26] | 5.21 | < 5.00 | 7.97 | –
2 | CC[C@@H]1NC(=O)[C@H]([C@H](O)[C@H](C)Cc2nc3cc(NS(=O)(=O)C(F)(F)F)ccc3[nH]2)N(C)C(=O)[C@H](C(C)C)N(C)C(=O)[C@H](CC(C)C)N(C)C(=O)[C@H](CC(C)C)N(C)C(=O)[C@@H](C)NC(=O)[C@H](C)NC(=O)[C@H](CC(C)C)N(C)C(=O)[C@H](C(C)C)NC(=O)[C@H](CC(C)C)N(C)C(=O)CN(C)C1=O [Compound 47] | < 5.00 | < 5.00 | 7.88 | –
3 | CC[C@@H]1NC(=O)[C@H]([C@H](O)[C@H](C)Cc2nc3cc(N)c(N)cc3[nH]2)N(C)C(=O)[C@H](C(C)C)N(C)C(=O)[C@H](CC(C)C)N(C)C(=O)[C@H](CC(C)C)N(C)C(=O)[C@@H](C)NC(=O)[C@H](C)NC(=O)[C@H](CC(C)C)N(C)C(=O)[C@H](C(C)C)NC(=O)[C@H](CC(C)C)N(C)C(=O)CN(C)C1=O [Compound 40] | 5.10 | < 5.00 | 8.26 | –
4 | CC[C@@H]1NC(=O)[C@H]([C@H](O)[C@H](C)Cc2nc3ccc(C(=O)OC)c(C(=O)OC)c3[nH]2)N(C)C(=O)[C@H](C(C)C)N(C)C(=O)[C@H](CC(C)C)N(C)C(=O)[C@H](CC(C)C)N(C)C(=O)[C@@H](C)NC(=O)[C@H](C)NC(=O)[C@H](CC(C)C)N(C)C(=O)[C@H](C(C)C)NC(=O)[C@H](CC(C)C)N(C)C(=O)CN(C)C1=O [Compound 30] | – | < 5.00 | 7.54 | –
5 | CC[C@@H]1NC(=O)[C@H]([C@H](O)[C@H](C)Cc2nc3ccc4c(S(=O)(=O)O)cccc4c3[nH]2)N(C)C(=O)[C@H](C(C)C)N(C)C(=O)[C@H](CC(C)C)N(C)C(=O)[C@H](CC(C)C)N(C)C(=O)[C@@H](C)NC(=O)[C@H](C)NC(=O)[C@H](CC(C)C)N(C)C(=O)[C@H](C(C)C)NC(=O)[C@H](CC(C)C)N(C)C(=O)CN(C)C1=O [Compound 45] | – | < 5.00 | – | –
6 | CCOC(=O)c1ccc2[nH]c(C[C@@H](C)[C@@H](O)[C@H]3C(=O)N[C@@H](CC)C(=O)N(C)CC(=O)N(C)[C@@H](CC(C)C)C(=O)N[C@@H](C(C)C)C(=O)N(C)[C@@H](CC(C)C)C(=O)N[C@@H](C)C(=O)N[C@H](C)C(=O)N(C)[C@@H](CC(C)C)C(=O)N(C)[C@@H](CC(C)C)C(=O)N(C)[C@@H](C(C)C)C(=O)N3C)nc2c1 [Compound 9] | 5.15 | < 5.00 | 7.86 | –
7 | CC[C@@H]1NC(=O)[C@H]([C@H](O)[C@H](C)Cc2nc3cc(-c4ccc(N)c(N)c4)ccc3[nH]2)N(C)C(=O)[C@H](C(C)C)N(C)C(=O)[C@H](CC(C)C)N(C)C(=O)[C@H](CC(C)C)N(C)C(=O)[C@@H](C)NC(=O)[C@H](C)NC(=O)[C@H](CC(C)C)N(C)C(=O)[C@H](C(C)C)NC(=O)[C@H](CC(C)C)N(C)C(=O)CN(C)C1=O [Compound 39] | < 5.00 | 5.00 | 8.21 | –
8 | CC[C@@H]1NC(=O)[C@H]([C@H](O)[C@H](C)Cc2nc3cc(C(=O)NC(CCC(=O)O)C(=O)NC(CCC(=O)O)C(=O)O)ccc3[nH]2)N(C)C(=O)[C@H](C(C)C)N(C)C(=O)[C@H](CC(C)C)N(C)C(=O)[C@H](CC(C)C)N(C)C(=O)[C@@H](C)NC(=O)[C@H](C)NC(=O)[C@H](CC(C)C)N(C)C(=O)[C@H](C(C)C)NC(=O)[C@H](CC(C)C)N(C)C(=O)CN(C)C1=O (stereo partly drawn) [Compound 13] | < 5.00 | < 5.00 | 7.95 | –
9 | CC[C@@H]1NC(=O)[C@H]([C@H](O)[C@H](C)Cc2nc3cc(NC(=O)C(F)(F)F)ccc3[nH]2)N(C)C(=O)[C@H](C(C)C)N(C)C(=O)[C@H](CC(C)C)N(C)C(=O)[C@H](CC(C)C)N(C)C(=O)[C@@H](C)NC(=O)[C@H](C)NC(=O)[C@H](CC(C)C)N(C)C(=O)[C@H](C(C)C)NC(=O)[C@H](CC(C)C)N(C)C(=O)CN(C)C1=O [Compound 38] | 5.48 | 5.42 | 7.84 | –
10 | CC[C@@H]1NC(=O)[C@H]([C@H](O)[C@H](C)Cc2nc3cc(C(=O)OC(C)C)ccc3[nH]2)N(C)C(=O)[C@H](C(C)C)N(C)C(=O)[C@H](CC(C)C)N(C)C(=O)[C@H](CC(C)C)N(C)C(=O)[C@@H](C)NC(=O)[C@H](C)NC(=O)[C@H](CC(C)C)N(C)C(=O)[C@H](C(C)C)NC(=O)[C@H](CC(C)C)N(C)C(=O)CN(C)C1=O [Compound 25] | – | 5.00 | – | –
11 | CC[C@@H]1NC(=O)[C@H]([C@H](O)[C@H](C)Cc2nc3c(F)c(F)cc(S(=O)(=O)O)c3[nH]2)N(C)C(=O)[C@H](C(C)C)N(C)C(=O)[C@H](CC(C)C)N(C)C(=O)[C@H](CC(C)C)N(C)C(=O)[C@@H](C)NC(=O)[C@H](C)NC(=O)[C@H](CC(C)C)N(C)C(=O)[C@H](C(C)C)NC(=O)[C@H](CC(C)C)N(C)C(=O)CN(C)C1=O [Compound 20] | < 5.00 | < 5.00 | 8.17 | –
12 | CC[C@@H]1NC(=O)[C@H]([C@H](O)[C@H](C)CC2=NCCN2)N(C)C(=O)[C@H](C(C)C)N(C)C(=O)[C@H](CC(C)C)N(C)C(=O)[C@H](CC(C)C)N(C)C(=O)[C@@H](C)NC(=O)[C@H](C)NC(=O)[C@H](CC(C)C)N(C)C(=O)[C@H](C(C)C)NC(=O)[C@H](CC(C)C)N(C)C(=O)CN(C)C1=O [Compound 42] | – | – | – | 5.00
13 | CCCCOC(=O)c1ccc2[nH]c(C[C@@H](C)[C@@H](O)[C@H]3C(=O)N[C@@H](CC)C(=O)N(C)CC(=O)N(C)[C@@H](CC(C)C)C(=O)N[C@@H](C(C)C)C(=O)N(C)[C@@H](CC(C)C)C(=O)N[C@@H](C)C(=O)N[C@H](C)C(=O)N(C)[C@@H](CC(C)C)C(=O)N(C)[C@@H](CC(C)C)C(=O)N(C)[C@@H](C(C)C)C(=O)N3C)nc2c1 [Compound 11] | – | 5.00 | – | –
14 | CC[C@@H]1NC(=O)[C@H]([C@H](O)[C@H](C)Cc2nc3ncnc(O)c3[nH]2)N(C)C(=O)[C@H](C(C)C)N(C)C(=O)[C@H](CC(C)C)N(C)C(=O)[C@H](CC(C)C)N(C)C(=O)[C@@H](C)NC(=O)[C@H](C)NC(=O)[C@H](CC(C)C)N(C)C(=O)[C@H](C(C)C)NC(=O)[C@H](CC(C)C)N(C)C(=O)CN(C)C1=O [Compound 18] | – | < 5.00 | 8.85 | –
15 | CC[C@@H]1NC(=O)[C@H]([C@H](O)[C@H](C)CC2=NC(C(=O)O)CO2)N(C)C(=O)[C@H](C(C)C)N(C)C(=O)[C@H](CC(C)C)N(C)C(=O)[C@H](CC(C)C)N(C)C(=O)[C@@H](C)NC(=O)[C@H](C)NC(=O)[C@H](CC(C)C)N(C)C(=O)[C@H](C(C)C)NC(=O)[C@H](CC(C)C)N(C)C(=O)CN(C)C1=O (stereo partly drawn) [Compound 43] | – | 5.28 | 7.34 | –
16 | CC[C@@H]1NC(=O)[C@H]([C@H](O)[C@H](C)Cc2nc3cc(C(=O)NCCC(=O)NCCC(=O)NCCC(=O)NCCC(=O)NCCC(=O)NCCC(=O)O)ccc3[nH]2)N(C)C(=O)[C@H](C(C)C)N(C)C(=O)[C@H](CC(C)C)N(C)C(=O)[C@H](CC(C)C)N(C)C(=O)[C@@H](C)NC(=O)[C@H](C)NC(=O)[C@H](CC(C)C)N(C)C(=O)[C@H](C(C)C)NC(=O)[C@H](CC(C)C)N(C)C(=O)CN(C)C1=O [Compound 51] | < 5.00 | – | 8.14 | –
17 | CC[C@@H]1NC(=O)[C@H]([C@H](O)[C@H](C)Cc2nc3cc(C(=O)N4CCCC4C(=O)N4CCC[C@H]4C(=O)N4CCCC4C(=O)N4CCC[C@H]4C(=O)N4CCCC4C(=O)N4CCC[C@H]4C(=O)O)ccc3[nH]2)N(C)C(=O)[C@H](C(C)C)N(C)C(=O)[C@H](CC(C)C)N(C)C(=O)[C@H](CC(C)C)N(C)C(=O)[C@@H](C)NC(=O)[C@H](C)NC(=O)[C@H](CC(C)C)N(C)C(=O)[C@H](C(C)C)NC(=O)[C@H](CC(C)C)N(C)C(=O)CN(C)C1=O (stereo partly drawn) [Compound 49] | < 5.00 | – | 7.51 | –
18 | CC[C@@H]1NC(=O)[C@H]([C@H](O)[C@H](C)Cc2nc3cc(S(=O)(=O)O)cc(F)c3[nH]2)N(C)C(=O)[C@H](C(C)C)N(C)C(=O)[C@H](CC(C)C)N(C)C(=O)[C@H](CC(C)C)N(C)C(=O)[C@@H](C)NC(=O)[C@H](C)NC(=O)[C@H](CC(C)C)N(C)C(=O)[C@H](C(C)C)NC(=O)[C@H](CC(C)C)N(C)C(=O)CN(C)C1=O [Compound 48] | < 5.00 | – | 8.06 | –
19 | CC[C@@H]1NC(=O)[C@H]([C@H](O)[C@H](C)Cc2nc3cc(C(=O)NCCN(C)C)ccc3[nH]2)N(C)C(=O)[C@H](C(C)C)N(C)C(=O)[C@H](CC(C)C)N(C)C(=O)[C@H](CC(C)C)N(C)C(=O)[C@@H](C)NC(=O)[C@H](C)NC(=O)[C@H](CC(C)C)N(C)C(=O)[C@H](C(C)C)NC(=O)[C@H](CC(C)C)N(C)C(=O)CN(C)C1=O [Compound 52] | < 5.00 | – | 8.10 | –
